In patent publication US20020132220A1, “Use of selectin antagonists in organ preservation solutions” (priority 2000, published 2002):
Where a name gives a salt, the structure may show the parent alone.

What was measured:
rat kidney [1] = test: Allogeneic rat kidney transplantation (Lewis to ACI) after flushing the kidney with perfusate; graft/recipient survival; format: in vivo, Lewis rats to ACI rats; conditions: for Survival: allogeneic transplantation, no immunosuppression
Method: (§1) To determine the effects of bimosiamose on the ischemia/reperfusion component of transplant injury, the following experiment was performed. To test bimosiamose solutions, a rat kidney is flushed with a solution containing bimosiamose (compound 1, 1,6-bis-(3-(3-carbomethylphenyl)-4-(2-α-D-mannopyranosyloxy)phenyl)hexane disodium salt, prepared according to the procedure described in U.S. Pat. No. 5,919,768) upon harvest from a donor and prior to placement into a recipient, to determine whether or not there is any protective effect. Rats for both examples were supplied by Harlan. A syngeneic transplantation model (Lewis rat to Lewis rat) was utilized. In this model, the immune system mediated rejection component is not relevant since the donor and recipient are of similar genetic background (syngeneic). In this experiment, test bimosiamose solutions were made up in a concentration of 100 mg/ml in phosphate-buffered saline solution, at a pH of 7.4. Test amounts of bimoisamose solution (as indicated in column 1 of Table 1) were added to Collins solution, to form the test perfusate solution. The Collins solution was purchased from Baxter, and contained 740 mg dibasic potassium phosphate, 205 mg monobasic potassium phosphate, 112 mg potassium chloride and 84 mg sodium bicarbonate per 100 mL solution, at pH 7.4. The test perfusate solution was cooled to a temperature of 4° C., and then 2 ml was utilized to perfuse the organ, which was afterwards maintained on ice for thirty minutes. Perfusion pressure was at or below physiologic pressure during the perfusion.
(§2) Following the 30 minute cold-temperature perfusion, transplantation was performed by transplanting a graft organ using end-to-end anastomosis of the renal artery, vein and ureter, with a simultaneous contralateral nephrectomy, wherein when the graft fails, the recipient does shortly thereafter.
The procedure described in Example 1 was also utilized to determine what effect bimosiamose solutions would have when transplantation between donor and recipient were not matched for histocompatibility (test rats are allogenic). […]

rat kidney [2] = test: Syngeneic rat kidney transplantation (Lewis to Lewis) after flushing the kidney with perfusate; ischemia/reperfusion injury; format: in vivo; conditions: for Blood Urea Nitrogen / Serum Creatinine / GFR: syngeneic transplantation; for GFR: 4° C., 30 min on ice
Method: as §1, §2
This injury is the result of 30 minutes of cold ischemia with an additional 30 minutes of warm ischemia during the surgical re-anastomosis. N in the first column of Table 1 indicates sample size, i.e.—when N=6, six animals were tested. […] These observations are supported by reductions in serum creatinine and blood urea nitrogen (see Table 1). Therefore, Table 1 illustrates a statistically significant improvements associated with bimosiamose treatment.

[3] = kidney perfused with 0.5 mg/ml in Collins solution
[4] = kidney perfused with 1.0 mg/ml in Collins solution

Structure (SMILES): O=C(O)Cc1cccc(-c2cc(CCCCCCc3ccc(OC4OC(CO)C(O)C(O)C4O)c(-c4cccc(CC(=O)O)c4)c3)ccc2OC2OC(CO)C(O)C(O)C2O)c1 [Cmpd. 1, 1,6-bis-(3-(3-carbomethylphenyl)-4-(2-α-D-mannopyranosyloxy)phenyl)hexane disodium salt]
- Survival (rat kidney [1]; kidney flushed with 0.5 mg/ml): 18.50 ± 6.45 days
- Survival (rat kidney [1]; kidney flushed with 1.0 mg/ml): 30.25 ± 13.25 days
- Graft function/survival (in words) (rat kidney [1]; renal allografts flushed with solution, without standard immunosuppressive agents): dose-related preservation of graft function/survival
- Renal function (in words) (rat kidney [2]; flushing the organ with a solution containing 1 mg/2 ml or 2 mg/2 ml): preservation of renal function
- Blood Urea Nitrogen (rat kidney [2]; [3]): 49.8 ± 24.2 mg/dL
- Serum Creatinine (rat kidney [2]; [3]): 0.62 ± 0.23 mg/dL
- GFR (rat kidney [2]; [3]): 0.70 ± 0.37 mL/min
- Blood Urea Nitrogen (rat kidney [2]; [4]): 32.0 ± 4.6 mg/dL
- Serum Creatinine (rat kidney [2]; [4]): 0.48 ± 0.08 mg/dL
- GFR (rat kidney [2]; [4]): 0.91 ± 0.08 mL/min
